The text below walks through data of patent publication US10604524B2, “Pyrropyrimidine compounds as MNKs inhibitors” (LIFEARC, priority 2015, dated 2020).

Assay in all cases: Kinase selectivity screen
In one test the target is PRKACA (Homo sapiens, UniProt P17612). Conditions: read-out: % Inhibition PRKACA.
The next test deals with BLK (Homo sapiens, UniProt P51451). Conditions: read-out: % Inhibition BLK.
For the next test, the target named is AURKC (Homo sapiens, UniProt Q9UQB9). To be noted: read-out: % Inhibition AURKC.
The target of a further test is RPS6KA1 (Homo sapiens, UniProt Q15418). Conditions: read-out: % Inhibition RPS6KA1.
RPS6KA1, sequence (Q15418 whole entry, species assumed): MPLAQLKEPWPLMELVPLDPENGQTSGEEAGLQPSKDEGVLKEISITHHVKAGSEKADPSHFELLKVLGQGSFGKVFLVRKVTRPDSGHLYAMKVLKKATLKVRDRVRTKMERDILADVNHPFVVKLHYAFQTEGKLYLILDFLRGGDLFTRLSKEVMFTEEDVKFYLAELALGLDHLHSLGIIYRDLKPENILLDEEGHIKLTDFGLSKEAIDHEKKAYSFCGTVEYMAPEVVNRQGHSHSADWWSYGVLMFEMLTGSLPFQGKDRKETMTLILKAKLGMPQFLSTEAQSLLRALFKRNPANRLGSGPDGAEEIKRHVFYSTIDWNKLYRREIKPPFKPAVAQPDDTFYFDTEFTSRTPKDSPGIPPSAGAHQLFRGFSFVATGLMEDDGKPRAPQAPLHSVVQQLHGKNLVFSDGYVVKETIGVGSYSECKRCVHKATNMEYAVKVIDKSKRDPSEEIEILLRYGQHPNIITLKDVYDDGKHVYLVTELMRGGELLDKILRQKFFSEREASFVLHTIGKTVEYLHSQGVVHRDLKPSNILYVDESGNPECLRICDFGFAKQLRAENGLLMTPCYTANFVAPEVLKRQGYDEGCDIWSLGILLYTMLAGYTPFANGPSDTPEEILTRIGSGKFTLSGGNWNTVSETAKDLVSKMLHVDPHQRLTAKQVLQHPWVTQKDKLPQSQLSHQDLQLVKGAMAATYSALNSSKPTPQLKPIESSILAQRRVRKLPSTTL
A further test has as its target ULK2 (Homo sapiens, UniProt Q8IYT8). Conditions: read-out: % Inhibition ULK2.
The target of a further test is IKBKB (Homo sapiens, UniProt O14920). Conditions: read-out: % Inhibition IKBKB.
IKBKB, sequence (O14920 whole entry, species assumed): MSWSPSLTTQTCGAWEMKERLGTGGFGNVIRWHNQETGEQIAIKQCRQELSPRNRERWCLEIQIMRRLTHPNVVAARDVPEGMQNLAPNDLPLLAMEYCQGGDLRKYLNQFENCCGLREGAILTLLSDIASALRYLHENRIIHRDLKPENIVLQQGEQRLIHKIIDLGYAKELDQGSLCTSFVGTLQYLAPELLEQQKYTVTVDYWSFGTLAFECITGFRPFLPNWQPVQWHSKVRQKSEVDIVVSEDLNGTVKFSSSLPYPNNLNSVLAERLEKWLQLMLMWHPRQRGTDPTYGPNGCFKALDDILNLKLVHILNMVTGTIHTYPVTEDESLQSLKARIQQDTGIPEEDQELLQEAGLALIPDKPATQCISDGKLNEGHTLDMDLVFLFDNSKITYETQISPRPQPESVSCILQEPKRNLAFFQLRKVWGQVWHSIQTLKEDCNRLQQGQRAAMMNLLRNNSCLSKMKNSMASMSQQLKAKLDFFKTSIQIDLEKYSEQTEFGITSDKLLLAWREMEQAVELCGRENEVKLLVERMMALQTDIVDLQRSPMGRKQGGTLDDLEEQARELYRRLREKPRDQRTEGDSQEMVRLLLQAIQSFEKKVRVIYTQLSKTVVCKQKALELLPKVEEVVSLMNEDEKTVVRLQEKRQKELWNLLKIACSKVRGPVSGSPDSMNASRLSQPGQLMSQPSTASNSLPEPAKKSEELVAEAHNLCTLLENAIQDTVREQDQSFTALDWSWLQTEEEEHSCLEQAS
In the next test the target is FYN (Homo sapiens, UniProt P06241). Conditions: read-out: % Inhibition FYN.
FYN, sequence (P06241 whole entry, species assumed): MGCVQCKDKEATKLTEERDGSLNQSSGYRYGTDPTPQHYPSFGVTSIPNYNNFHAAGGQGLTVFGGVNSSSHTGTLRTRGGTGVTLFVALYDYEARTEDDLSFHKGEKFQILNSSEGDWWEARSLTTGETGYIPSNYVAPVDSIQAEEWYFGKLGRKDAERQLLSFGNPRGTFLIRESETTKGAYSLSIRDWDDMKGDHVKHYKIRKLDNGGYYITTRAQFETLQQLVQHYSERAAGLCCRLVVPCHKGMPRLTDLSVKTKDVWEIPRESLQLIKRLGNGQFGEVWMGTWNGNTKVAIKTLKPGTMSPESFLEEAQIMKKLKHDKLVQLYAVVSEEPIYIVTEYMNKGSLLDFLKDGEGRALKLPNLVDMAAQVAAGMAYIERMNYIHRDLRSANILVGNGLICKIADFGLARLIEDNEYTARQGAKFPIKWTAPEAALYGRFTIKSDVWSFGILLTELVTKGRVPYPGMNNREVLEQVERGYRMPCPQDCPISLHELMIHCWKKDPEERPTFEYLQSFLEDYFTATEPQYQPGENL
For another test, the target named is CSNK1G1 (Homo sapiens, UniProt Q9HCP0). Conditions: read-out: % Inhibition CSNK1G1.
The target of a further test is PAK2 (Homo sapiens, UniProt Q13177). To be noted: read-out: % Inhibition PAK2.
In another test the target is PLK1 (Homo sapiens, UniProt P53350). Conditions: read-out: % Inhibition PLK1.
PLK1, sequence (P53350 whole entry, species assumed): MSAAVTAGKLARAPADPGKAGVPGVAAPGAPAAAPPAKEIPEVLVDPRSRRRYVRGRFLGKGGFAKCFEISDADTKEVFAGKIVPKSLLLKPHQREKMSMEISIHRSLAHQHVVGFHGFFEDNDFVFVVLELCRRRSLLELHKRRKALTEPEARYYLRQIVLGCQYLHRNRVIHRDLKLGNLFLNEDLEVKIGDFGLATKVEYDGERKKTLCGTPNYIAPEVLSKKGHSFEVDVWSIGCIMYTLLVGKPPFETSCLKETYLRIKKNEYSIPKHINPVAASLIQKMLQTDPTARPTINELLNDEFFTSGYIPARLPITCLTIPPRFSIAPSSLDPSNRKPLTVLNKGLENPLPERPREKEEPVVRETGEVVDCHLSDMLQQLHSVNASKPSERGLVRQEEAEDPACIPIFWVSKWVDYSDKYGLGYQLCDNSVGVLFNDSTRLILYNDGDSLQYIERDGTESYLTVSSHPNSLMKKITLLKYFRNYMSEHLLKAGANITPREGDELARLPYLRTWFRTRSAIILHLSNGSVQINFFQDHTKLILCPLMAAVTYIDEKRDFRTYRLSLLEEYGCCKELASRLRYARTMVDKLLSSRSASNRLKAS
The target of another test is EGFR (Homo sapiens, UniProt P00533). Conditions: read-out: % Inhibition EGFR.
The next test addresses ACVR1B (Homo sapiens, UniProt P36896). To be noted: read-out: % Inhibition ACVR1B.
Another test has as its target SGK1 (Homo sapiens, UniProt O00141). Conditions: read-out: % Inhibition SGK1.
The target of a further test is AKT1 (Homo sapiens, UniProt P31749). To be noted: read-out: % Inhibition AKT1.
AKT1, sequence (P31749 whole entry, species assumed): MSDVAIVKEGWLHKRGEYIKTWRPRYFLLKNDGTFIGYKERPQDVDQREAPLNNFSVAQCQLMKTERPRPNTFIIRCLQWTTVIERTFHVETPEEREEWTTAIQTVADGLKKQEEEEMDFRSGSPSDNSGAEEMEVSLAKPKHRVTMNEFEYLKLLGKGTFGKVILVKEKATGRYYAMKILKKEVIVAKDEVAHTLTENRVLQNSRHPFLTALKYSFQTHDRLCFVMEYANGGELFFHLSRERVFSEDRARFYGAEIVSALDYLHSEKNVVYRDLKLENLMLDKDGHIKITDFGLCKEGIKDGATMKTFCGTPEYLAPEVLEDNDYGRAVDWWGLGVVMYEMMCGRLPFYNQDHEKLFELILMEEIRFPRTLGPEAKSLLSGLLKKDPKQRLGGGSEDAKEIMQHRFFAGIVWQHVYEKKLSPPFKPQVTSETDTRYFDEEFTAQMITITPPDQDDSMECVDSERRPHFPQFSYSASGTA
The next test has as its target MAP2K7 (Homo sapiens, UniProt O14733). Conditions: read-out: % Inhibition MAP2K7.
For another test, the target named is CDK2/CCNA2 (Homo sapiens, UniProt P24941). Conditions: read-out: % Inhibition CDK2/CCNA2.
The target in another test is MAPK14 (Homo sapiens, UniProt Q16539). To be noted: read-out: % Inhibition MAPK14.
MAPK14, sequence (Q16539 whole entry, species assumed): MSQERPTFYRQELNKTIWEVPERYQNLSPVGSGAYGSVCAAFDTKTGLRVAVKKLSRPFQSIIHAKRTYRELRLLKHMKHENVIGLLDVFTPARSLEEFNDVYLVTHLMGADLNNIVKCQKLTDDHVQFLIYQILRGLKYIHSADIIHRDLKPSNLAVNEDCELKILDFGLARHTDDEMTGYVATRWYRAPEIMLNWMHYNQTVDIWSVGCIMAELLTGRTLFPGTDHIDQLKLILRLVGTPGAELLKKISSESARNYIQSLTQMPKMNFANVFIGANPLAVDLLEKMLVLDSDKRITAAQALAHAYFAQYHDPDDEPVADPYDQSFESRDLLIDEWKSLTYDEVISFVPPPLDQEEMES

MAP2K7, sequence (O14733 whole entry, species assumed): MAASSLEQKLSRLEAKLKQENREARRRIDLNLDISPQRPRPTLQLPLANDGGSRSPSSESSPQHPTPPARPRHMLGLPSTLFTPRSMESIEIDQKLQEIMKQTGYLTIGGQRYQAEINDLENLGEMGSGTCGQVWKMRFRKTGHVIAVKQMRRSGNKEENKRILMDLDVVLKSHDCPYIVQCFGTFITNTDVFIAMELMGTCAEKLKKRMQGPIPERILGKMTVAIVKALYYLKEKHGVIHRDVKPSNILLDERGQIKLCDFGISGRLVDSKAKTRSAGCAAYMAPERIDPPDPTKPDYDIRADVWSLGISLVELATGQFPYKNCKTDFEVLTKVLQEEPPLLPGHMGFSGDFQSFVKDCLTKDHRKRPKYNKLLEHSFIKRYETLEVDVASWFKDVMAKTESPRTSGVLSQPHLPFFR
ACVR1B, sequence (P36896 24-505, species assumed): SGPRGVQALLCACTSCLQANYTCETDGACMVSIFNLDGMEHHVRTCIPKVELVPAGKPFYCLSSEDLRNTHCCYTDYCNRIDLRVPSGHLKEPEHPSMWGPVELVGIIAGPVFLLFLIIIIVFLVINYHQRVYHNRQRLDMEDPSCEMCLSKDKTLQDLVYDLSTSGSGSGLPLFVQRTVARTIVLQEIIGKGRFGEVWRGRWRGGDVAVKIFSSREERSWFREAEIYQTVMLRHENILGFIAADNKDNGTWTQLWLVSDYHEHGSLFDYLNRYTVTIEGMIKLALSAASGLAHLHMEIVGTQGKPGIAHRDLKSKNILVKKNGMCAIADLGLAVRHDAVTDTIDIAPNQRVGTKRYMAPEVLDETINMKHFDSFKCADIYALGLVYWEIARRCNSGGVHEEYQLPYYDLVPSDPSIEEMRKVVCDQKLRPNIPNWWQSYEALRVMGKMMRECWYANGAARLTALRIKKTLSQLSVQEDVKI
SGK1, sequence (O00141 whole entry, species assumed): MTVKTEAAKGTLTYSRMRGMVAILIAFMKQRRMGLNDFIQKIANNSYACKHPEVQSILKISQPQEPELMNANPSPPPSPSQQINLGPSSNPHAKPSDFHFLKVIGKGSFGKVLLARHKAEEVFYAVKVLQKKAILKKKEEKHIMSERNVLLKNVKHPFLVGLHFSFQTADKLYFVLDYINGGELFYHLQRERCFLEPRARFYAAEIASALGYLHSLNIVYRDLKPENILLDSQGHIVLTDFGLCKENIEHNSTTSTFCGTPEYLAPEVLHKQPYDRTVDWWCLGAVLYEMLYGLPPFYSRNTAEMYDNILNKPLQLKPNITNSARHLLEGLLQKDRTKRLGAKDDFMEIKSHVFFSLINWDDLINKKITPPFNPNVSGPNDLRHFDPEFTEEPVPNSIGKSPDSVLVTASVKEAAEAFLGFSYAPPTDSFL

For `CC(C)Oc1cc(F)ccc1Nc1ncnc2cc(C(=O)NCCCN(C)C)n(C)c12` [Example 40, N-[3-(dimethylamino)propyl]-4-{[4-fluoro-2-(propan-2-yloxy)phenyl]amino}-5-methyl-5H-pyrrolo[3,2-d]pyrimidine-6-carboxamide], the inhibition at 1 µM at PRKACA is 0%; on BLK it was 4%; at AURKC, 28%; at RPS6KA1 it was 0%; at ULK2, 0%; on IKBKB, 0%. The inhibition at 1 µM on FYN, on CSNK1G1, on PAK2, at PLK1, at EGFR and on ACVR1B was 0% in each case. The inhibition at 1 µM on SGK1, on AKT1, at MAP2K7, on CDK2/CCNA2 and at MAPK14 was 0% each time.
